≈ marks a conversion by molar mass, not a printed value. Read-outs that look alike come from different tables or passages of the source.
Experiments:
Proteus vulgaris 6059 = test: MIC against standard strains (agar dilution); type: cell-based; settings: Proteus vulgaris 6059; Mueller-Hinton agar, 20 hours at 37°C; read-out: MIC
Method: (§1) Test example 1: Measurement of Minimum Inhibitory Concentration (MIC)
(§2) Specifically, test compounds were diluted by 2-fold dilution method and dispersed in Mueller-Hinton agar medium and then, 2µℓ of test strains were inoculated at a concentration of 10^7 cfu(colony forming unit)/mℓ on the medium and incubated for 20 hours at 37°C.

[1] = tested on: Salmonella typhimurium 14028; test: MIC against standard strains (agar dilution); type: cell-based; settings: Salmonella enterica; Salmonella typhimurium 14028; Mueller-Hinton agar, 20 hours at 37°C; read-out: MIC
Method: as §1, §2

[2] = tested on: Acinetobacter calcoaceticu 15473; test: MIC against standard strains (agar dilution); type: cell-based; settings: Acinetobacter calcoaceticu 15473; Mueller-Hinton agar, 20 hours at 37°C; read-out: MIC
Method: as §1, §2

[3] = tested on: Staphylococcus aureus 6538p; test: MIC against standard strains (agar dilution); type: cell-based; settings: Staphylococcus aureus 6538p; Mueller-Hinton agar, 20 hours at 37°C; read-out: MIC
Method: as §1, §2

[4] = tested on: Escherichia coli TEM3 3455E; test: MIC against standard strains (agar dilution); type: cell-based; settings: TEM33455E, 20 h
Method: as §1, §2

Escherichia coli 10536 = test: MIC against standard strains (agar dilution); type: cell-based; settings: Escherichia coli 10536; Mueller-Hinton agar, 20 hours at 37°C; read-out: MIC
Method: as §1, §2

[5] = tested on: Klebsiella pneumoniae 2011E; test: MIC against standard strains (agar dilution); type: cell-based; settings: Klebsiella pneumoniae 2011E; Mueller-Hinton agar, 20 hours at 37°C; read-out: MIC
Method: as §1, §2

[6] = tested on: Enterobacter cloacae IND+VE 1194E; test: MIC against standard strains (agar dilution); type: cell-based; settings: Enterobacter cloacae IND+VE 1194E; Mueller-Hinton agar, 20 hours at 37°C; read-out: MIC
Method: as §1, §2

Escherichia coli 3190Y = test: MIC against standard strains (agar dilution); type: cell-based; settings: Escherichia coli, 3190Y, 20 h
Method: as §1, §2

[7] = tested on: Klebsiella aerogenes K1+ 1082E; test: MIC against standard strains (agar dilution); type: cell-based; settings: Klebsiella aerogenes K1+ 1082E; Mueller-Hinton agar, 20 hours at 37°C; read-out: MIC
Method: as §1, §2

[8] = tested on: Pseudomonas aeruginosa 6065Y; test: MIC against standard strains (agar dilution); type: cell-based; settings: Pseudomonas aeruginosa 6065Y; Mueller-Hinton agar, 20 hours at 37°C; read-out: MIC
Method: as §1, §2

Escherichia coli 851E = test: MIC against standard strains (agar dilution); type: cell-based; settings: Escherichia coli, 851E, 20 h
Method: as §1, §2

[9] = tested on: Staphylococcus epidermidi 887E; test: MIC against standard strains (agar dilution); type: cell-based; settings: Staphylococcus epidermidi 887E; Mueller-Hinton agar, 20 hours at 37°C; read-out: MIC
Method: as §1, §2

[10] = tested on: Escherichia coli TEM1 1193E; test: MIC against standard strains (agar dilution); type: cell-based; settings: TEM11193E, 20 h
Method: as §1, §2

[11] = tested on: Klebsiella aerogenes SHV-1 1976E; test: MIC against standard strains (agar dilution); type: cell-based; settings: Klebsiella aerogenes, 20 h
Method: as §1, §2

[12] = tested on: Pseudomonas aeruginosa 1912E; test: MIC against standard strains (agar dilution); type: cell-based; settings: Pseudomonas aeruginosa 1912E; Mueller-Hinton agar, 20 hours at 37°C; read-out: MIC
Method: as §1, §2

[13] = tested on: Morganella morganii 1375E; test: MIC against standard strains (agar dilution); type: cell-based; settings: Morganella morganii 1375E; Mueller-Hinton agar, 20 hours at 37°C; read-out: MIC
Method: as §1, §2

[14] = tested on: Staphylococcus aureus giorgio; test: MIC against standard strains (agar dilution); type: cell-based; settings: Staphylococcus aureus giorgio; Mueller-Hinton agar, 20 hours at 37°C; read-out: MIC
Method: as §1, §2

[15] = Pharmacokinetic experiment (blood concentration by HPLC); type: in vivo, mice; settings: male, mouse, blood, 20 mg/kg
Method: Test example 2: Pharmacokinetic experiment
Male mice, each of which has a body weight of […] were used in the present pharmacokinetic experiment. Test compounds were formulated into 1% of solution and then, the solution was administered by oral route and by injection with a dose of 20mg/kg, respectively. At the fixed interval of time after administration, blood was gathered from the mice. Concentrations of test compounds in blood were measured by HPLC quantitative analysis and based on the results, pharmacokinetic parameters were calculated.

[16] = intravenous, Injection, read-out: average conc.
[17] = intravenous, Injection, read-out: blood concentration, mouse-1
[18] = intravenous, Injection, read-out: blood concentration, mouse-2
[19] = other: injection, Injection, read-out: average conc.
[20] = other: injection, Injection, read-out: blood concentration, mouse-1
[21] = other: injection, Injection, read-out: blood concentration, mouse-2
[22] = po, Oral administration, read-out: average conc.
[23] = po, Oral administration, read-out: blood concentration, mouse-1
[24] = po, Oral administration, read-out: blood concentration, mouse-2
[25] = po, Oral administration, read-out: blood concentration, mouse-3

## CO/N=C(\C(=O)NC1C(=O)N2C(C(=O)O)=C(Sc3cc(N)nc(N)n3)CSC12)c1csc(N)n1 (stereo not drawn) [Compound No. 25, 7-[(Z)-2-(2-amino-thiazol-4-yl)-2-methoxyimino-acetylamino]-3-(2,6-diamino-pyrimidin-4-ylsulfanyl)-8-oxo-5-thia-1-azabicyclo[4,2,0]oct-2-ene-2-carboxylic acid]
Proteus vulgaris 6059
  MIC: 0.016 µg/mL (≈ 0.0306 µM)
[1]
  MIC: 0.25 µg/mL (≈ 0.477 µM)
[2]
  MIC: 64 µg/mL (≈ 122 µM)
[3]
  MIC: 1 µg/mL (≈ 1.91 µM)
[4]
  MIC: 8 µg/mL (≈ 15.3 µM)
Escherichia coli 10536
  MIC: 0.063 µg/mL (≈ 0.12 µM)
[5]
  MIC: 0.5 µg/mL (≈ 0.955 µM)
[6]
  MIC: > 64 µg/mL
Escherichia coli 3190Y
  MIC: 0.031 µg/mL (≈ 0.0592 µM)
[7]
  MIC: > 64 µg/mL
[8]
  MIC: 64 µg/mL (≈ 122 µM)
Escherichia coli 851E
  MIC: 0.063 µg/mL (≈ 0.12 µM)
[9]
  MIC: 8 µg/mL (≈ 15.3 µM)
[10]
  MIC: 0.25 µg/mL (≈ 0.477 µM)
[11]
  MIC: 0.25 µg/mL (≈ 0.477 µM)
[12]
  MIC: 16 µg/mL (≈ 30.6 µM)
[13]
  MIC: 0.13 µg/mL (≈ 0.248 µM)
[14]
  MIC: 0.5 µg/mL (≈ 0.955 µM)
[15]; [16]
  concentration at 1 min: 96400 ng/mL
  concentration at 5 min: 41200 ng/mL
  concentration at 10 min: 29100 ng/mL
  concentration at 120 min: 1800 ng/mL
  concentration at 180 min: 800 ng/mL
  concentration at 240 min: 400 ng/mL
[15]; [17]
  concentration at 1 min: 120000 ng/mL
  concentration at 5 min: 51700 ng/mL
  concentration at 10 min: 37700 ng/mL
  concentration at 120 min: 2200 ng/mL
  concentration at 180 min: 1100 ng/mL
  concentration at 240 min: 500 ng/mL
[15]; [18]
  concentration at 1 min: 72800 ng/mL
  concentration at 5 min: 30700 ng/mL
  concentration at 10 min: 20400 ng/mL
  concentration at 120 min: 1300 ng/mL
  concentration at 180 min: 600 ng/mL
  concentration at 240 min: 300 ng/mL
[15]; [19]
  concentration at 20 min: 17100 ng/mL
  concentration at 40 min: 9800 ng/mL
  concentration at 60 min: 6100 ng/mL
  concentration at 90 min: 3300 ng/mL
[15]; [20]
  concentration at 20 min: 21600 ng/mL
  concentration at 40 min: 12200 ng/mL
  concentration at 60 min: 7600 ng/mL
  concentration at 90 min: 4300 ng/mL
[15]; [21]
  concentration at 20 min: 12700 ng/mL
  concentration at 40 min: 7300 ng/mL
  concentration at 60 min: 4600 ng/mL
  concentration at 90 min: 2400 ng/mL
[15]; [22]
  concentration at 5 min: 90 ng/mL
  concentration at 10 min: 200 ng/mL
  concentration at 20 min: 490 ng/mL
  concentration at 40 min: 470 ng/mL
  concentration at 60 min: 440 ng/mL
  concentration at 90 min: 570 ng/mL
  concentration at 120 min: 360 ng/mL
  concentration at 180 min: 410 ng/mL
  concentration at 240 min: 230 ng/mL
[15]; [23]
  concentration at 5 min: 70 ng/mL
  concentration at 10 min: 160 ng/mL
  concentration at 20 min: 280 ng/mL
  concentration at 40 min: 270 ng/mL
  concentration at 60 min: 160 ng/mL
  concentration at 90 min: 70 ng/mL
  concentration at 120 min: 60 ng/mL
  concentration at 180 min: 60 ng/mL
  concentration at 240 min: 60 ng/mL
[15]; [24]
  concentration at 5 min: 130 ng/mL
  concentration at 10 min: 270 ng/mL
  concentration at 20 min: 720 ng/mL
  concentration at 40 min: 590 ng/mL
  concentration at 60 min: 610 ng/mL
  concentration at 90 min: 840 ng/mL
  concentration at 120 min: 480 ng/mL
  concentration at 180 min: 590 ng/mL
  concentration at 240 min: 220 ng/mL
[15]; [25]
  concentration at 5 min: 60 ng/mL
  concentration at 10 min: 140 ng/mL
  concentration at 20 min: 270 ng/mL
  concentration at 40 min: 350 ng/mL
  concentration at 60 min: 260 ng/mL
  concentration at 90 min: 290 ng/mL
  concentration at 120 min: 240 ng/mL
  concentration at 180 min: 240 ng/mL
  concentration at 240 min: 230 ng/mL
